Data as given in US8410117B2, “Imidazopyrimidine derivatives” (Hoffmann-La Roche Inc., priority 2010, dated 2013).

Columns and labels:
rats = conditions: sub-chronic treatment with PCP; cited from earlier work
human PDE10A = target: T1, human PDE10A (Homo sapiens, UniProt Q9Y233); assay: human PDE10A full length Scintillation Proximity Assay (SPA); format: biochemical; conditions: 50 nM cGMP and 50 nM [3H]-cGMP, 20 minutes at room temperature; read-out: PDE10A inhibition IC50
T1 construct: The human PDE10A full length assay; purchased Enzo Life Science, Lausen, Switzerland SE-534
Procedure, shortened: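 Full-length enzyme at 3.75 ng/well in 20 mM HEPES pH 7.5, 10 mM MgCl2, 0.05 mg/ml BSA, with 50 nM cGMP plus 50 nM [3H]-cGMP substrate, 20 min at room temperature. Stopped with YSi-SPA beads in zinc sulphate and counted by scintillation. IC50 from inhibitor concentration series; no-enzyme wells define background.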

T1 sequence (Q9Y233 1-779 isoform Q9Y233-1): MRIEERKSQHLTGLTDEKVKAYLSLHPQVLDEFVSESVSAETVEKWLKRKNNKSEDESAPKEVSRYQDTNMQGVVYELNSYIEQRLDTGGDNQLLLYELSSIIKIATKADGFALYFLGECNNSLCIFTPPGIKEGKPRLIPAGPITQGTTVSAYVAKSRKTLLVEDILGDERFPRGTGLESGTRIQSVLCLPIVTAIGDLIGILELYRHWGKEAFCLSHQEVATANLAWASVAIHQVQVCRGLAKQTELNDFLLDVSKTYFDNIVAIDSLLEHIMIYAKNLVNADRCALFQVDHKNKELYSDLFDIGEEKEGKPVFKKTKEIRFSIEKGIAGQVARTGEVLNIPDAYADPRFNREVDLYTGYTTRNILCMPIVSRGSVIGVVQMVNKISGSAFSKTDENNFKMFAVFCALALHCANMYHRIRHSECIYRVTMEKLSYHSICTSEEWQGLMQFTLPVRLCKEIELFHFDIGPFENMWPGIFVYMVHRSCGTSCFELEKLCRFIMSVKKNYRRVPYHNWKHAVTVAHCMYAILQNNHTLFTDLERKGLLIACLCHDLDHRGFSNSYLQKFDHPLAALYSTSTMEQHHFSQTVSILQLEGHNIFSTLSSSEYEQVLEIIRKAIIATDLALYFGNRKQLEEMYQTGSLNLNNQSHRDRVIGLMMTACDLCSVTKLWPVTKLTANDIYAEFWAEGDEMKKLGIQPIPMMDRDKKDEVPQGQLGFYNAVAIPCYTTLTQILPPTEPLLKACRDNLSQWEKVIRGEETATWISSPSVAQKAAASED

SMILES	melting point [°C]	IC50 (human PDE10A) [µM]	deficits in the extra-dimensional shift learning (rats)
COc1ccc(Cc2nccc3cc(OC)c(OC)cc23)cc1OC [papaverine, Papaverine]	–	–	attenuate the deficits in the extra-dimensional shift learning
Cc1ncc(Cl)c(C(=O)Nc2ccn3cc(-c4ccccc4)nc3n2)n1 [Example 79, 5-Chloro-2-methyl-N-(2-phenylimidazo[1,2-a]pyrimidin-7-yl)pyrimidine-4-carboxamide]	> 250	0.247	–
CC(=O)Oc1cccc(-c2cn3ccc(NC(=O)c4c(C(=O)N(C)C)cnn4C)nc3n2)c1 [Example 93, 3-(7-(4-(dimethylcarbamoyl)-1-methyl-1H-pyrazole-5-carboxamido)imidazo[1,2-a]pyrimidin-2-yl)phenyl acetate]	–	0.0083	–
CCC(C)n1ncc(Cl)c1C(=O)Nc1ccn2cc(-c3ccccc3)nc2n1 (stereo not drawn) [Example 11, 2-sec-Butyl-4-chloro-2H-pyrazole-3-carboxylic acid (2-phenyl-imidazo[1,2-a]pyrimidin-7-yl)-amide]	–	0.105	–
Cc1cc(C(=O)Nc2ccn3cc(-c4ccccc4)nc3n2)cc(Cl)n1 [Example 81, 2-Chloro-6-methyl-N-(2-phenylimidazo[1,2-a]pyrimidin-7-yl)isonicotinamide]	148 to 151	0.703	–
Cn1ncc(C(=O)NC(C)(C)C)c1C(=O)Nc1ccn2cc(-c3ccccc3)nc2n1 [Example 138, N4-tert-butyl-1-methyl-N5-(2-phenylimidazo[1,2-a]pyrimidin-7-yl)-1H-pyrazole-4,5-dicarboxamide]	–	0.13	–
Cc1nc(CNC(=O)c2cnn(C)c2C(=O)Nc2ccn3cc(-c4ccccc4)nc3n2)no1 [Example 168, 1-methyl-N-4-((5-methyl-1,2,4-oxadiazol-3-yl)methyl)-N5-(2-phenylimidazo[1,2-a]pyrimidin-7-yl)-1H-pyrazole-4,5-dicarboxamide]	–	0.865	–
Cc1cc(CNC(=O)c2cnn(C)c2C(=O)Nc2ccn3cc(-c4ccccc4)nc3n2)n[nH]1 [Example 121, 1-methyl-N-4-((5-methyl-1H-pyrazol-3-yl)methyl)-N5-(2-phenylimidazo[1,2-a]pyrimidin-7-yl)-1H-pyrazole-4,5-dicarboxamide]	–	0.0167	–
COc1ncccc1C(=O)Nc1ccn2cc(-c3ccccc3)nc2n1 [Example 78, 2-Methoxy-N-(2-phenylimidazo[1,2-a]pyrimidin-7-yl)nicotinamide]	225 to 226	0.125	–
CCN(C)C(=O)c1cnn(C)c1C(=O)Nc1ccn2cc(-c3cccc(OC)c3)nc2n1 [Example 87, N-4-ethyl-N5-(2-(3-methoxyphenyl)imidazo[1,2-a]pyrimidin-7-yl)-N-4,1-dimethyl-1H-pyrazole-4,5-dicarboxamide]	–	0.0055	–
Cn1ncc(C(=O)NCc2cn3ccccc3n2)c1C(=O)Nc1ccn2cc(-c3ccccc3)nc2n1 [Example 149, N4-(imidazo[1,2-a]pyridin-2-ylmethyl)-1-methyl-N5-(2-phenylimidazo[1,2-a]pyrimidin-7-yl)-1H-pyrazole-4,5-dicarboxamide]	–	0.26	–
Cn1ncc(C(=O)NCc2ccccc2)c1C(=O)Nc1ccn2cc(-c3ccccc3)nc2n1 [Example 162, N4-benzyl-1-methyl-N5-(2-phenylimidazo[1,2-a]pyrimidin-7-yl)-1H-pyrazole-4,5-dicarboxamide]	–	0.624	–
CCN(CC)C(=O)c1cnn(C)c1C(=O)Nc1ccn2cc(-c3ccccc3)nc2n1 [Example 47, 2-Methyl-2H-pyrazole-3,4-dicarboxylic acid 4-diethylamide 3-[(2-phenyl-imidazo[1,2-a]pyrimidin-7-yl)-amide]]	–	0.0152	–

Now from value to compound, other results behind:

melting point [°C]	IC50 (human PDE10A) [µM]	SMILES	deficits in the extra-dimensional shift learning (rats)
–	0.0051	CC1CCCN1C(=O)c1cnn(C)c1C(=O)Nc1ccn2cc(-c3ccccc3)nc2n1 (stereo not drawn) [Example 116, 1-methyl-4-(2-methylpyrrolidine-1-carbonyl)-N-(2-phenylimidazo[1,2-a]pyrimidin-7-yl)-1H-pyrazole-5-carboxamide]	–
–	0.0177	Cc1cnc(CNC(=O)c2cnn(C)c2C(=O)Nc2ccn3cc(-c4ccccc4)nc3n2)s1 [Example 124, 1-methyl-N4-((5-methylthiazol-2-yl)methyl)-N5-(2-phenylimidazo[1,2-a]pyrimidin-7-yl)-1H-pyrazole-4,5-dicarboxamide]	–
–	0.151	Cc1nn(C)c(CNC(=O)c2cnn(C)c2C(=O)Nc2ccn3cc(-c4ccccc4)nc3n2)c1[N+](=O)[O-] [Example 140, N4-((1,3-dimethyl-4-nitro-1H-pyrazol-5-yl)methyl)-1-methyl-N5-(2-phenylimidazo[1,2-a]pyrimidin-7-yl)-1H-pyrazole-4,5-dicarboxamide]	–
–	0.725	CCCn1ccc(CNC(=O)c2cnn(C)c2C(=O)Nc2ccn3cc(-c4ccccc4)nc3n2)n1 [Example 164, 1-methyl-N5-(2-phenylimidazo[1,2-a]pyrimidin-7-yl)-N4-((1-propyl-1H-pyrazol-3-yl)methyl)-1H-pyrazole-4,5-dicarboxamide]	–
–	0.105	CC(C)n1ncc(Cl)c1C(=O)Nc1ccn2cc(-c3ccccc3)nc2n1 [Example 10, 4-Chloro-2-isopropyl-2H-pyrazole-3-carboxylic acid (2-phenyl-imidazo[1,2-a]pyrimidin-7-yl)-amide]	–
–	0.0115	Cn1cc(C(=O)Nc2ccn3cc(-c4ccccc4)nc3n2)c(C(=O)N2CCC2)n1 [Example 66, 3-(Azetidine-1-carbonyl)-1-methyl-1H-pyrazole-4-carboxylic acid (2-phenyl-imidazo[1,2-a]pyrimidin-7-yl)-amide]	–
255 to 257	0.496	Cc1cc(C(=O)Nc2ccn3cc(-c4ccccc4)nc3n2)ccn1 [Example 80, 2-Methyl-N-(2-phenylimidazo[1,2-a]pyrimidin-7-yl)isonicotinamide]	–
